Test results published in article PMC7321301, “Characteristics of New Peptides GQLGEHGGAGMG, GEHGGAGMGGGQFQPV, EQGFLPGPEESGR, RLARAGLAQ, YGNPVGGVGH, and GNPVGGVGHGTTGT as Inhibitors of Enzymes Involved in Metabolic Syndrome and Antimicrobial Potential” (Molecules, 2020).
Like-named read-outs stand apart in the source and are kept apart here. No end group written: not given here.

Experiments:
[1] = system: HECa10 cells; experiment: LDH test; type: cell-based, murine; conditions: 24-h incubation, 0.1–100 µg/mL
Protocol: The study was conducted according to the procedure described by Rokicki et al.. HECa10 cells after 80–90% confluence were trypsinized (3 min, 37 °C), centrifuged (300 g, 5 min), counted, and plated in 96-well plates at a concentration of 1 × 10^4 cells/well. Then, 24 h after seeding, cells were washed with phosphate-buffered saline (PBS) solution and culture medium (Dulbecco’s Modified Eagle Medium (DMEM) + 10% fetal bovine serum (FBS) + antibiotics, all from Life Technologies, Warsaw, Poland) was added with test factors in concentrations: 0.1; 1; 5; 10; 50; 100 µg/mL). Then, 24 h after addition of the compounds, proliferation tests (MTT, NR, LDH) were performed. The color intensity was determined using a Fluostar Omega microplate reader. Results are presented as the mean ± SD of 3 independent experiments (n = 12).
The cells were seeded in a 96-well culture plate at a concentration of 1 × 10^4 cells/well. Then, 24 h after seeding, the cells were rinsed twice with PBS (Life Technologies, Poland) and resuspended in fresh growth medium. Peptide fractions were added at concentrations of 0 (control), 0.1, 1, 5, 10, 50, and 100 µg/mL. After 24 h incubation with the proteins, activity of released from cells lactate dehydrogenase was assessed (Pierce Ldh Cytotoxicity Assay Kit, Life Technologies, Warsaw Poland).The absorption was measured at a wavelength of 540 nm with the background cutoff at 490 nm (FLUOstar Omega, BMG Labtech GmbH, Ortenberg, Germany). The results are presented as the percentage of the control values (mean ± SD). Each assay was performed in triplicate (n = 18).

[2] = molecular target: T1, pancreatic lipase (Homo sapiens, UniProt P16233); experiment: Pancreatic lipase inhibitory activity (pNPA) and kinetics; type: biochemical; conditions: mean ± SD, triplicate
T1 sequence (P16233 17-465): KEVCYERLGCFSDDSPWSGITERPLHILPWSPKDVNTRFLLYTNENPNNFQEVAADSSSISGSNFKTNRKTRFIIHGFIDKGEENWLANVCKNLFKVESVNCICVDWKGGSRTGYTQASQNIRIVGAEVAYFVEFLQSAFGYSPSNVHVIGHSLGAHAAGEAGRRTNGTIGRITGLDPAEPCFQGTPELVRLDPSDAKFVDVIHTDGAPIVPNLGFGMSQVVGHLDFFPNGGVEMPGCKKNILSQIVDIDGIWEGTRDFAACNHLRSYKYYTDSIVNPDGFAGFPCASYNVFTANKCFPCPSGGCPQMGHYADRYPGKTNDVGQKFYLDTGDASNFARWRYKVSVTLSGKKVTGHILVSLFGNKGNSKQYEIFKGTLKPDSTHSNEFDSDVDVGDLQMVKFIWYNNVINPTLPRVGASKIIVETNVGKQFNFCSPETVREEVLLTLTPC
Protocol: (§1) For all inhibitory activity, IC50 was calculated. The IC50 value defined as the concentration of the extract inhibiting 50% of the enzyme activity was determined by measuring the enzyme inhibitory activity and peptide contents in each sample. The IC50 value was calculated from the plotted graph of the inhibition activity for the five different peptide concentrations.
Lipase inhibitory activity was determined with the method described by Jakubczyk et al.. The final volume of the reaction mixture was 150 μL (2 μL of the enzyme, 5 μL of the sample, 142 μL of 100 mM potassium phosphate buffer, pH 7.5, and 1 μL of a 100 mM p-nitrophenyl acetate (pNPA) solution in dimethyl sulfoxide (DMSO). Changes in absorbance at […] were measured using BioTek Microplate Readers.
(§2) Substrate solutions (5.0, 10.0, 15.0, and 20.0 mM) were prepared and used to determine the Michaelis constant (Km), the inhibition constant (Ki), and the maximum velocity (Vmax) of enzymes. The kinetic parameters were evaluated by Lineweaver–Burk’s method. The reaction conditions were the same as in the enzyme inhibitory activity assay.

[3] = molecular target: T2, COX-2 (Homo sapiens, UniProt P35354); experiment: COX-2 inhibitory activity (COX Activity Assay kit) and kinetics; type: biochemical; conditions: mean ± SD, triplicate
T2 construct: purchased Cayman Chemical 760151
T2 sequence (P35354 18-604): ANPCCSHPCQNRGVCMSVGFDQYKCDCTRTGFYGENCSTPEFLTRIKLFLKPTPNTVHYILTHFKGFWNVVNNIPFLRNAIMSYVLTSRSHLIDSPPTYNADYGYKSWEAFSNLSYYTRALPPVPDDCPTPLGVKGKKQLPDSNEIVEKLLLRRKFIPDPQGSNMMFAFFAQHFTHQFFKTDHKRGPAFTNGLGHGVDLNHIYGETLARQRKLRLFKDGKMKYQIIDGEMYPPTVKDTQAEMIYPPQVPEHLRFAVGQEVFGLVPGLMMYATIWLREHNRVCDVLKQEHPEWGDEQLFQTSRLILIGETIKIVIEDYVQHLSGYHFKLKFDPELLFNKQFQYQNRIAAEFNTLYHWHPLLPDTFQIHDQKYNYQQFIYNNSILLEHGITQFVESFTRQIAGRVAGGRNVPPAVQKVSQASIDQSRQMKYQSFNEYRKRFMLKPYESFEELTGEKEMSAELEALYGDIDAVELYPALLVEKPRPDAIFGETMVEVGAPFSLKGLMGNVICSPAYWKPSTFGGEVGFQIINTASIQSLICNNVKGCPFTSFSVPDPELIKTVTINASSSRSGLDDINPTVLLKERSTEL
Protocol: as §1
The effect of the peptide on COX-1 and COX-2 was measured using the COX Activity Assay kit from Cayman Chemical (Item No. 760151, Ann Arbor, MI, USA). COX activity was determined according to the instructions provided with the kit. The enzyme activity was assayed by calorimetric measurement of the appearance of oxidized N,N,N′,N′-Tetramethyl-p-phenylenediamine (TMPD) at 590 nm using BioTek Microplate Readers (Epoch™ 2 BioTek, Bad Friedrichshall, Germany).
as §2

[4] = molecular target: LOX (Glycine max, UniProt P08170); type: biochemical; conditions: read-out: IC50 LOX
Protocol: as §1
The LOX inhibitory assay was carried out with the method described by Szymanowska et al.. A solution of pure linoleic acid was used as a substrate. First, 157.2 µl of pure linoleic acid was mixed with 157.2 µL of Tween-20 and 10 mL of deionized water. The substrate was clarified with 1 mL of 1 M NaOH and M/15 phosphate buffer pH = 7.0 was added to the volume of 200 mL. The enzymatic reaction mixture contained 297 µL of M/15 phosphate buffer pH = 7, 2 µl of the substrate solution, and 1 µL of the enzyme solution. A mixture of 298 µl of phosphate buffer (pH 7.0) and 2 µL of the substrate solution was used to calibrate the spectrophotometer. Changes in absorbance at 234 nm were measured using BioTek Microplate Readers.
as §2

Chain of LOX (P08170 whole entry): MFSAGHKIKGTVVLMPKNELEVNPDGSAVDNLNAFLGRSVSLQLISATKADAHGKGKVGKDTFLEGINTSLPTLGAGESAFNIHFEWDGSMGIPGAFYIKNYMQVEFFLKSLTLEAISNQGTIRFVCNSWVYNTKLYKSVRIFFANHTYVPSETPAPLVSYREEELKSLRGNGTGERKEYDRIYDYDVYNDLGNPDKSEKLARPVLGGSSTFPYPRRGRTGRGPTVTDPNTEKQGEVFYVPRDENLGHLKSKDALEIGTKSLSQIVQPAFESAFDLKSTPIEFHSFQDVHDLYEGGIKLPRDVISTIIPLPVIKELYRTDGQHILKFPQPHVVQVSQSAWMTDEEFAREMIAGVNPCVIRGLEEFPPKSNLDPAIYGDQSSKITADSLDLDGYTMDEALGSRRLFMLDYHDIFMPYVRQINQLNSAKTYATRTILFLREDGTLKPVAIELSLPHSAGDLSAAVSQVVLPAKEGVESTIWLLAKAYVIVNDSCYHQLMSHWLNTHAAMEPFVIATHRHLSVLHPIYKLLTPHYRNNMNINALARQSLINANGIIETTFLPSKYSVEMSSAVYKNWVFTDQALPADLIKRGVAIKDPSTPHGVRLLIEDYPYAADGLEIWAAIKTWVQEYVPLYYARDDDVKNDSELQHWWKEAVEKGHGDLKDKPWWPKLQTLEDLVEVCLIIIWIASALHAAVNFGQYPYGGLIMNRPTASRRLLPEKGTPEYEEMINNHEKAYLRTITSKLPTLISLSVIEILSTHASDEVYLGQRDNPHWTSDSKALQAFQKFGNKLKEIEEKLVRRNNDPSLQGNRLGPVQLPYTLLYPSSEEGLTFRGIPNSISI

Sequence | LDH activity test, HECa10 cells compared to control [1] | IC50 [2] [µM] | IC50 [3] [µM] | IC50 [4] [µM] | IC50 ([4]; mean ± SD, triplicate) [µM]
EQGFLPGPEESGR [ER-13, EQGFLPGPEESGR] | no statistically significant differences | 54.8 | 3.07 | 60.1 | –
GEHGGAGMGGGQFQPV [GV-16, GEHGGAGMGGGQFQPV] | no statistically significant differences | 41.9 | 30.2 | 68.5 | –
GNPVGGVGHGTTGT [GT-14, GNPVGGVGHGTTGT] | no statistically significant differences | 86.1 | 3.66 | 153 | –
GQLGEHGGAGMG [GG-12, GQLGEHGGAGMG] | no statistically significant differences | 56.6 | 15.7 | 131 | –
RLARAGLAQ [RQ-9, RLARAGLAQ] | no statistically significant differences | 102 | 4.99 | – | 205
YGNPVGGVGH [YH-10, YGNPVGGVGH] | no statistically significant differences | 107 | 16.2 | 127 | –
